{"source": "patent US20260224574A1", "about": "“ANTIFUNGAL COMPOSITIONS AND METHODS OF USE THEREOF” (ARIZONA BOARD OF REGENTS ON BEHALF OF THE UNIVERSITY OF …, priority 2023, published 2026)"}
{"tested_on": "Cne H99 strain", "assay": "cell-based anti-Cryptococcus neoformans growth inhibition dose-response assay (resazurin to resorufin fluorescence)", "conditions": "Cne H99, concentration series 0.02-50 μM, 24 hours incubation", "description": "(§1) For primary screening, a cell-based high-throughput screening (HTS) assay was developed for testing the growth inhibition of Cne H99 strain of fungus. […] After standardizing the assay in 96 well plates, it was optimized in a 384-well plate.\n(§2) The compound library included known bioactives, commercial libraries, and academic molecules. For HTS, the fungal cells were grown in SD broth overnight and diluted in Sabouraud dextrose (SD) broth to an optical density at 600 nm (OD600) of 0.5. […] From this cell suspension, 20 μL of the cells was added to each well of the 384-well assay plate (black, clear bottom) containing test compounds. Plates with test compounds were prepared by adding 20 μL of RPMI-MOPS medium to each well using a liquid dispenser (Thermo Multidrop Combi), followed by transferring 1 μL of the test compounds to all wells of the 22 columns in the assay plate using a robot. Dimethyl sulfoxide (DMSO) as vehicle control or 0.8 μM AmB as positive control was added manually to the remaining two columns using a multichannel pipet. […] Additionally, the absorbance was also read at 600 nm using the plate reader (EnVision, PerkinElmer).\n(§3) Concentration series (0.02-50 μM) of test compounds and equalizing volume of DMSO were dispensed, using a liquid handler (D300e, Hewlett-Packard), to the 384-well plates. Following the addition of the Cne cells, the assay plates were incubated for 24 hours, followed by a fluorescence reading of resorufin as explained for single-concentration screening. The IC50 was calculated by graphpad prism.", "units": {"IC50": "µM"}}
{"smiles": "Clc1ccc(CCNc2ncnc3sccc23)cc1", "note": "[compound 1]", "IC50": 0.35}
{"smiles": "c1ccc(CN2CCOc3ccccc3CCCCC3(CCNCC3)C2)cc1", "note": "[compound 2]", "IC50": 0.57}
{"smiles": "COc1ccc(OCc2nnc3sc(-c4ccc5c(c4)OCCO5)nn23)cc1", "note": "[compound 3]", "IC50": 0.6}
{"smiles": "Clc1cc(Cl)c(OCC#CI)cc1Cl", "note": "[compound 6]", "IC50": 1.44}
{"smiles": "Nc1ccc2ncnc(NCCc3ccc(Oc4ccccc4)cc3)c2c1", "note": "[compound 10]", "IC50": 1.83}
{"smiles": "O=c1nc(SCc2ccc(F)cc2)c2c(n1Cc1ccccc1)CCC2", "note": "[compound 11]", "IC50": 2.27}
{"smiles": "CC(C)CCNCC(O)Cn1c2ccc(Br)cc2c2cc(Br)ccc21", "note": "(stereo not drawn) [compound 12]", "IC50": 2.41}
{"smiles": "O=C(O)c1ccc(-c2ccc3cc(C45CC6CC(CC(C6)C4)C5)c(O)cc3c2)cc1", "note": "[compound 13]", "IC50": 2.46}
{"smiles": "CCOC(=O)c1sc(NC(=O)c2ccco2)c(SC#N)c1C", "note": "[compound 22]", "IC50": 3.11}
{"smiles": "CCCCCCCCc1ccc(CCC(N)(CO)CO)cc1", "note": "[compound 35]", "IC50": 4.76}
{"smiles": "COC(=O)c1sc(-c2cccs2)cc1N1C(=O)C=CC1=O", "note": "[compound 36]", "IC50": 4.87}
{"smiles": "Cc1ccc(S(=O)(=O)C=CC#N)cc1", "note": "[compound 39]", "IC50": 5.07}
{"smiles": "Cc1cc(C)cc(N2C(=O)C=CC2=O)c1", "note": "[compound 42]", "IC50": 5.31}
{"smiles": "Cc1ccccc1Nc1nc(Nc2ccccc2)c2cnn(C)c2n1", "note": "[compound 44]", "IC50": 5.38}
{"smiles": "CCC(C)c1ccc(N2C(=O)C=CC2=O)cc1", "note": "(stereo not drawn) [compound 45]", "IC50": 5.49}
{"smiles": "NC(=O)c1cnc(NCCc2ccc(O)c(Cl)c2)nc1NCc1ccccc1", "note": "[compound 52]", "IC50": 6.28}
{"smiles": "CCCCOc1ccc(-c2cc3c(N4CCN(CC)CC4)nccn3n2)cc1", "note": "[compound 69]", "IC50": 8.19}
{"smiles": "COc1ccc(CC2NCC(O)C2OC(C)=O)cc1", "note": "(stereo not drawn) [compound 81]", "IC50": 9.69}
{"smiles": "CN1c2cc3c(cc2N=C(c2ccc(C(=O)O)cc2)c2ccccc21)C(C)(C)CCC3(C)C", "note": "[compound 88]", "IC50": 10.1}
{"smiles": "Cc1cc(Nc2nc(NC(C)c3ccc(F)cc3)c(C#N)cc2F)n[nH]1", "note": "(stereo not drawn) [compound 89]", "IC50": 10.4}
{"smiles": "C(=N/n1cnnc1)/c1ccc(N(c2ccccc2)c2ccccc2)cc1", "note": "[compound 90]", "IC50": 10.5}
{"tested_on": "Cne H99 strain", "assay": "cell-based anti-Cryptococcus neoformans growth inhibition dose-response assay (resazurin to resorufin fluorescence)", "conditions": "Cryptococcus neoformans, H99STRAIN, Cne H99, concentration series 0.02-50 μM, 24 hours incubation", "description": "as §1, §2, §3", "units": {"IC50": "µM"}}
{"smiles": "CC[n+]1c(/C=C/C=C2/N(C)c3ccccc3C2(C)C)sc2ccccc21", "note": "[compound 7]", "IC50": 1.57}
{"smiles": "OCCCNc1cc(-c2ccnc(Nc3cccc(Cl)c3)n2)ccn1", "note": "[compound 8]", "IC50": 1.66}
{"smiles": "Cc1ccc(NC(=O)Nc2ncc(-c3ccccc3)n2C)cc1Cl", "note": "[compound 9]", "IC50": 1.68}
{"smiles": "c1cc2c(cc1C1CCCCC1)c1c3n2CCNC3CCC1", "note": "(stereo not drawn) [compound 14]", "IC50": 2.52}
{"smiles": "Cc1cccc2c1-c1sc(C(=O)NCCCN3CCC(Cc4ccccc4)CC3)cc1CO2", "note": "[compound 15]", "IC50": 2.53}
{"smiles": "CNC(=O)c1ccccc1Nc1nc(Nc2ccc(N3CCOCC3)cc2OC)ncc1Cl", "note": "[compound 16]", "IC50": 2.57}
{"smiles": "Clc1ccc(C(c2ccc(Cl)cc2)[n+]2ccn(CC(OCc3ccc(Cl)cc3Cl)c3ccc(Cl)cc3Cl)c2)cc1", "note": "(stereo not drawn) [compound 17]", "IC50": 2.63}
{"smiles": "Cc1ccc(CNc2nc(C)nc3onc(C)c23)cc1", "note": "[compound 18]", "IC50": 2.73}
{"smiles": "Cc1nc(NCCC2=CCCCC2)c2c(C)noc2n1", "note": "[compound 19]", "IC50": 2.92}
{"smiles": "Cc1c(Cl)cccc1N1C(=O)C=CC1=O", "note": "[compound 20]", "IC50": 2.95}
{"smiles": "O=c1nc(SCc2ccccc2)c2c(n1Cc1ccccc1)CCC2", "note": "[compound 21]", "IC50": 3}
{"smiles": "CCc1noc2nc(C)nc(NCCC3=CCCCC3)c12", "note": "[compound 23]", "IC50": 3.14}
{"smiles": "Cc1ccc(Nc2nc3nonc3nc2Nc2ccccc2F)cc1Cl", "note": "[compound 24]", "IC50": 3.15}
{"smiles": "O=C(NNc1ccccc1)c1ccncc1", "note": "[compound 25]", "IC50": 3.1}
{"smiles": "CCn1c2ccccc2c2cc(N3C(=O)C=CC3=O)ccc21", "note": "[compound 26]", "IC50": 3.18}
{"smiles": "CCCCc1ccc(N2C(=O)C=CC2=O)cc1", "note": "[compound 27]", "IC50": 3.22}
{"smiles": "CCCCCCCCCCCCCCCC[N+](C)(C)CCN(Cc1ccc(OC)cc1)c1ncccn1", "note": "[compound 28]", "IC50": 3.39}
{"smiles": "COc1cccc(-c2cc(F)ccc2[C@H]2Cc3nc(N)nc(C)c3C(=O)N2)n1", "note": "[compound 29]", "IC50": 3.62}
{"smiles": "CC(C)CCOc1cccc(OCC(=O)Nc2ccncc2)c1", "note": "[compound 30]", "IC50": 3.94}
{"smiles": "CCc1noc2ncnc(NCCC3=CCCCC3)c12", "note": "[compound 31]", "IC50": 4.09}
{"smiles": "O=C1C=CC(=O)N1c1ccccc1Br", "note": "[compound 32]", "IC50": 4.61}
{"smiles": "Oc1cccnc1NC(c1ccc(Cl)cc1)c1ccc2cccnc2c1O", "note": "(stereo not drawn) [compound 33]", "IC50": 4.63}
{"smiles": "O=C(Nc1ccc(Br)c(C(F)(F)F)c1)c1cccs1", "note": "[compound 38]", "IC50": 4.96}
{"smiles": "COC(=O)Nc1nc2cc(SC(C)C)ccc2[nH]1", "note": "[compound 40]", "IC50": 5.08}
{"smiles": "O=[N+]([O-])/C=C/c1ccc2c(c1)OCO2", "note": "[compound 43]", "IC50": 5.31}
{"smiles": "COc1ccc(OCc2nnc3sc(-c4ccc(OC)c(OC)c4)nn23)cc1", "note": "[compound 47]", "IC50": 5.59}
{"smiles": "O=C1C=CC(=O)N1CCc1ccccc1", "note": "[compound 48]", "IC50": 5.63}
{"smiles": "c1ccc(CCNc2ncnc3ccsc23)cc1", "note": "[compound 49]", "IC50": 5.83}
{"smiles": "CCCCCCCCCOc1ccc2[nH]cc(CCN)c2c1", "note": "[compound 50]", "IC50": 6.04}
{"smiles": "OC(CNCc1ccc(-c2ccc(Cl)cc2Cl)o1)c1ccccc1", "note": "(stereo not drawn) [compound 51]", "IC50": 6.09}
{"smiles": "Cc1noc2ncnc(N3CCC(c4ccccc4)C3)c12", "note": "(stereo not drawn) [compound 53]", "IC50": 6.29}
{"smiles": "CC(C)(c1ccc(OCC2CO2)cc1)c1ccc(OCC2CO2)cc1", "note": "(stereo not drawn) [compound 54]", "IC50": 6.42}
{"smiles": "Clc1ccc(-c2ccc(CNCc3ccc4c(c3)OCO4)o2)cc1", "note": "[compound 55]", "IC50": 6.59}
{"smiles": "CCOC(=O)C1CCN(c2ncnc3scc(C)c23)CC1", "note": "[compound 56]", "IC50": 6.6}
{"smiles": "COc1cc(Nc2ncc3ccn(-c4cccc(CCC#N)c4)c3n2)cc(OC)c1OC", "note": "[compound 57]", "IC50": 6.84}
{"smiles": "Cc1oc2ncnc(N3CCC(C(=O)NCc4ccc(Cl)cc4)CC3)c2c1C", "note": "[compound 58]", "IC50": 6.87}
{"smiles": "Cc1ccc(Cl)cc1N1CCN(C(=O)C2CCN(Cc3nc(-c4ccc(Cl)cc4)oc3C)CC2)CC1", "note": "[compound 59]", "IC50": 6.93}
{"smiles": "O=C1C=CC(=O)N1c1ccc(-n2ccc(C(F)(F)F)n2)cc1", "note": "[compound 60]", "IC50": 7.06}
{"smiles": "Cc1ccc2nc(-c3ccc(N4C(=O)CC(N5CCC(C)CC5)C4=O)cc3)sc2c1", "note": "(stereo not drawn) [compound 61]", "IC50": 7.28}
{"smiles": "O=c1c2ccccc2oc2cc(O)cc(O)c12", "note": "[compound 62]", "IC50": 7.59}
{"smiles": "O=C(Nc1ccc(F)c(Cl)c1)c1ccc(Nc2ccnc(-c3ccc(F)cc3)n2)cc1", "note": "[compound 63]", "IC50": 7.65}
{"smiles": "COc1cc(CN2CCCCCCOc3ccccc3Oc3ccc(Cl)cc3NC(=O)C2)ccc1OCCN(C)C", "note": "[compound 64]", "IC50": 7.75}
{"smiles": "CC(C)(C)c1cc(C=C(C#N)C#N)cc(C(C)(C)C)c1O", "note": "[compound 65]", "IC50": 7.87}
{"smiles": "CCN(CC)CCN1COc2c(cc(Cl)c3cccnc23)C1", "note": "[compound 66]", "IC50": 8.08}
{"smiles": "O=C1C=CC(=O)N1Cc1ccc(Cl)cc1", "note": "[compound 67]", "IC50": 8.09}
{"smiles": "Brc1ccc(-c2ccc(CNCc3ccc4c(c3)OCO4)o2)cc1", "note": "[compound 68]", "IC50": 8.1}
{"smiles": "CSc1cccc(N2C(=O)C=CC2=O)c1", "note": "[compound 70]", "IC50": 8.2}
{"smiles": "CCN(CC)c1cc(C)c2cc(NC(=O)Nc3ccc(Br)cc3)ccc2n1", "note": "[compound 71]", "IC50": 8.38}
{"smiles": "Clc1ccc(-c2ccc(CNCc3ccccn3)o2)c(Cl)c1", "note": "[compound 72]", "IC50": 8.46}
{"smiles": "CC(C)c1ccc2c(c1)CCC1C(C)(CN)CCCC21C", "note": "(stereo not drawn) [compound 73]", "IC50": 8.59}
{"smiles": "O=c1cc(-c2ccccc2)cc(-c2ccccc2)n1O", "note": "[compound 74]", "IC50": 8.63}
{"smiles": "COc1ccc(-c2cc(C(=O)NCCN3CCCCC3)c3cccc(-c4ccc(F)cc4)c3n2)cc1", "note": "[compound 75]", "IC50": 8.74}
{"smiles": "Cc1ccc(Sc2cccc3nc(N)nc(N)c23)cc1", "note": "[compound 76]", "IC50": 8.75}
{"smiles": "CC1CCN(c2nc(Cl)nc3ccccc23)CC1", "note": "[compound 77]", "IC50": 9.01}
{"smiles": "Nc1nc2ccc(Oc3ccccc3)cc2s1", "note": "[compound 78]", "IC50": 9.2}
{"smiles": "CN(C)CC1COc2ccccc2C1=O", "note": "(stereo not drawn) [compound 79]", "IC50": 9.27}
{"smiles": "O=C1C=CC(=O)N1c1ccccc1Oc1ccc(Cl)cc1Cl", "note": "[compound 80]", "IC50": 9.65}
{"smiles": "OC(CNCc1ccc(-c2cc(Cl)ccc2Cl)o1)c1ccccc1", "note": "(stereo not drawn) [compound 82]", "IC50": 9.78}
{"smiles": "Cc1nn2c(NCCN(C)C)cc(C(C)(C)C)nc2c1-c1ccc(F)cc1", "note": "[compound 83]", "IC50": 9.92}
{"smiles": "Brc1ccc(-c2ccc(CNCc3ccco3)o2)cc1", "note": "[compound 85]", "IC50": 9.96}
{"smiles": "Cc1nc(NCc2ccccc2)c2c(C)noc2n1", "note": "[compound 86]", "IC50": 9.99}
{"smiles": "CN1CCC(C(=O)N2CCC3(CCCCc4ccccc4OCCN(Cc4ccccc4)C3)CC2)CC1", "note": "[compound 87]", "IC50": 10.1}
{"smiles": "CCc1ccc(-c2nc3ccccn3c2CNCc2cccc(C)c2)cc1", "note": "[compound 91]", "IC50": 10.7}
